The source of these data is paper PMC10888192, “New Derivatives of 1-(3-Methyl-1-Benzofuran-2-yl)Ethan-1-one: Synthesis and Preliminary Studies of Biological Activity” (International Journal of Molecular Sciences, 2024).

Some results are limits rather than exact numbers.

A word on the IC50: it is the concentration that gives 50% inhibition.

The test system of test [1] is K562 cells. As to the kind of experiment: Annexin V-FITC/PI apoptosis assay, flow cytometry. To be noted: Annexin V-FITC, IC50 concentration, 72 h. Format: cell-based, human. The source says: ROS may play a different function in different stages of cancer. ROS might enhance cell growth and proliferation through the induction of various cell signaling pathways involving nuclear factor-kappa B (NF-κB) and STAT3, hypoxia-inducible factor 1α (HIF1α), kinases, growth factors, cytokines and many other proteins. On the other hand, the accumulation of ROS can induce cell damage and promote apoptosis. It has also been confirmed that elevated ROS concentration may cause mitochondrial membrane depolarization and facilitate increased cellular pro-apoptotic molecules releasing. […] As has been previously reported, lead compound 1,1′-[3-(bromomethyl)-5,6-dimethoxy-1-benzofuran-2,7-diyl] induces apoptosis in human leukemia cells. […] We used the Annexin V-FITC test, which allows us to detect the early structural changes in cellular membrane which occur during apoptosis. […] In the control sample almost 94% of cells were neither apoptotic nor necrotic. […] As has been previously written, the MTT test assesses the toxicity of tested compounds based on the activity of mitochondrial enzymes. […] In order to estimate the effect of K562 exposure on the tested compounds as well as to confirm apoptotic properties of new benzofurans, we analyzed the effect of the compounds caspases 3 and 7 activities. […]
On the technique in general: In flow cytometry, cells or beads pass a laser one at a time.

Test [2] relates to PC3 cells (human metastatic prostate cancer). As to the kind of experiment: MTT cytotoxicity assay, PC3. Format: cell-based. The note with it: PC-3, 72 h incubation, mean ± SD. The method, then: (§1) The cell viability was analyzed at the following six concentrations of compounds: 5, 10, 20, 40, 60 and 100 µM after 72 h incubation.
(§2) Additionally, to determine the safety profile of the tested compounds, the therapeutic index (TI) (the ratio of IC50 value in HaCaT to cancer cells K562) was calculated. […] The goal of conducting the MTT assay in this research was to select benzofuran derivatives, which manage to reduce viability of cancer cells while exposing mild effects on normal healthy cells.
(§3) The cytotoxicity was evaluated by MTT reduction assay, which measures mitochondrial respiratory function. The test was performed based on the method described by Präbst et al.. Cells (1 × 10^4/well), in logarithmic phase, were seeded into 96-well plates in appropriate medium. After 24 h, cells were exposed to test compounds. […] After 72 h, the medium with the compounds was completely removed and MTT solution (0.5 mg/mL) in fresh medium without serum was added to each well. Plates with cells were incubated for 4 h at 37 °C in the dark. Then, MTT solution was removed and replenished with 0.1 mL DMSO: isopropanol (1:1) mixture to dissolve the generated formazan crystals. The optical density was measured with a […] GO (ThermoScientific) microplate reader at 570 nm. Replicates of three wells for each dosage, including vehicle control, were analyzed for each experiment. The experiments were conducted in triplicate. Control cells which were only treated with respective medium were used as the 100% viability value. […] Additionally, to determine the safety profile of the test compounds, therapeutic indexes (TI) (the ratio of IC50 values in HaCat to cancer cells (K562, PC3, SW620, Cack-1)) were calculated.
(Tetrazolium dyes change colour on reduction, which living cells bring about.)

Test [3] relates to SW620 cells (human metastatic colon cancer). The test can be described thus: MTT cytotoxicity assay, SW620. Format: cell-based. To be noted: SW-620, 72 h incubation, mean ± SD. The method, then: as §1, §2, §3
Test [4] deals with K562 cells (human chronic myelogenous leukemia). The test can be described thus: MTT cytotoxicity assay, K562. Format: cell-based. The note with it: 72 h incubation, mean ± SD. How it is done: as §1, §2, §3
The test system of test [5] is Cacki-1 cells (human clear cell renal cell carcinoma). As to the kind of experiment: MTT cytotoxicity assay, Cacki-1. In kind it is cell-based. The note with it: 72 h incubation. The method, then:
as §1, §2, §3

Test [6] relates to HaCaT cells (human immortal keratinocytes). As to the kind of experiment: MTT cytotoxicity assay, HaCaT. To be noted: 72 h incubation, mean ± SD. In kind it is cell-based. The method, then: as §1, §2, §3

Turning to `COc1cc(OC)c2c(CBr)c(C(C)=O)oc2c1` [Compound 6, 1-[3-(Bromomethyl)-4,6-Dimethoxy-1-Benzofuran-2-yl]Ethanone], in test [1], the “Apoptosis (early and late stages), share of K562 cells” value was determined as 21.6%. For the same molecule, the IC50 in test [2] is 7.02 ± 2.22 µM; in test [3] it was over 100 µM; in test [4] it was 3.83 ± 0.6 µM; in test [5], over 100 µM; in test [6], 12.4 ± 1.27 µM.

As for `CCOc1cccc2oc(C(C)=O)c(CBr)c12` [Compound 8, 1-[3-(Bromomethyl)-4-Ethoxy-1-Benzofuran-2-yl]Ethanone], the “Apoptosis (early and late stages), share of K562 cells” value in test [1] came out at 60.1%. The IC50 in test [2] was 7.86 ± 2.62 µM; in test [3] it was over 100 µM; in test [4] it was 2.59 ± 0.88 µM; in test [5], over 100 µM; in test [6], 23.6 ± 10.7 µM.
